Reference: patent US20070167631A1, “Novel herbicides” (priority 2003, published 2007)

Columns and labels:
Assay type in all cases: in vivo
Abutilon = assay: Pre-emergence herbicidal action (Example B1); conditions: 250 g/ha, after 4 weeks, rating scale 10=total damage, 0=no action
Method: (§1) Monocotyledonous and dicotyledonous test plants are sown in standard soil in pots or seed trays. Immediately after sowing, the test compounds, in the form of an aqueous suspension (prepared from a wettable powder (Example F3, b) according to WO 97/34485) or in the form of an emulsion (prepared from an emulsifiable concentrate (Example F1, c) according to WO 97/34485), are applied by spraying in a concentration of 250 g/ha. The test plants are then grown in a greenhouse under optimum conditions. After a test duration of 4 weeks, the test is evaluated in accordance with a scale of eleven ratings (10=total damage, 0=no action). Ratings of from 10 to 7 (especially from 10 to 8) indicate very good to good herbicidal action.

Amaranthus [1] = assay: Pre-emergence herbicidal action (Example B1); conditions: 250 g/ha, after 4 weeks, rating scale 10=total damage, 0=no action
Method: as §1

Chenopodium [2] = assay: Pre-emergence herbicidal action (Example B1); conditions: 250 g/ha, after 4 weeks, rating scale 10=total damage, 0=no action
Method: as §1

Digitaria = assay: Pre-emergence herbicidal action (Example B1); conditions: 250 g/ha, after 4 weeks, rating scale 10=total damage, 0=no action
Method: as §1

Echinochloa [3] = assay: Pre-emergence herbicidal action (Example B1); conditions: 250 g/ha, after 4 weeks, rating scale 10=total damage, 0=no action
Method: as §1

Panicum [4] = assay: Pre-emergence herbicidal action (Example B1); conditions: 250 g/ha, after 4 weeks, rating scale 10=total damage, 0=no action
Method: as §1

Scirpus = assay: Pre-emergence herbicidal action (Example B1); conditions: 250 g/ha, after 4 weeks, rating scale 10=total damage, 0=no action
Method: as §1

Amaranthus [5] = assay: Post-emergence herbicidal action (Example B2); conditions: 250 g/ha, after about 18 days, rating scale 10=total damage, 0=no action
From the text: (§2) Monocotyledonous and dicotyledonous test plants are cultivated in a greenhouse in standard soil in plastic pots and, at the 4- to 6-leaf stage, are sprayed with an aqueous suspension of the test compounds of formula I prepared from a 25% wettable powder (Example F3, b) according to WO 97/34485) or with an emulsion of the test compounds of formula I prepared from a 25% emulsifiable concentrate (Example F1, c) according to WO 97/34485), corresponding to concentrations of 125 and 250 g of active ingredient per hectare (500 litres of water per ha). The test plants are then grown on in the greenhouse under optimum conditions. After a test duration of about 18 days, the test is evaluated in accordance with a scale of eleven ratings (10=total damage, 0=no action). Ratings of from 10 to 7 (especially from 10 to 8) indicate very good to good herbicidal action.

Chenopodium [6] = assay: Post-emergence herbicidal action (Example B2); conditions: 250 g/ha, after about 18 days, rating scale 10=total damage, 0=no action
From the text: as §2

Echinochloa [7] = assay: Post-emergence herbicidal action (Example B2); conditions: 250 g/ha, after about 18 days, rating scale 10=total damage, 0=no action
From the text: as §2

Euphorbia = assay: Post-emergence herbicidal action (Example B2); conditions: 250 g/ha, after about 18 days, rating scale 10=total damage, 0=no action
From the text: as §2

Panicum [8] = assay: Post-emergence herbicidal action (Example B2); conditions: 250 g/ha, after about 18 days, rating scale 10=total damage, 0=no action
From the text: as §2

Stellaria = assay: Post-emergence herbicidal action (Example B2); conditions: 250 g/ha, after about 18 days, rating scale 10=total damage, 0=no action
From the text: as §2

Xanthium = assay: Post-emergence herbicidal action (Example B2); conditions: 250 g/ha, after about 18 days, rating scale 10=total damage, 0=no action
From the text: as §2

| Structure (SMILES) | Pre-emergence action: Abutilon (Abutilon) | Pre-emergence action: Amaranthus (Amaranthus [1]) | Pre-emergence action: Chenopodium (Chenopodium [2]) | Pre-emergence action: Digitaria (Digitaria) | Pre-emergence action: Echinochloa (Echinochloa [3]) | Pre-emergence action: Panicum (Panicum [4]) | Pre-emergence action: Scirpus (Scirpus) | Post-emergence action: Amaranthus (Amaranthus [5]) | Post-emergence action: Chenopodium (Chenopodium [6]) | Post-emergence action: Echinochloa (Echinochloa [7]) | Post-emergence action: Euphorbia (Euphorbia) | Post-emergence action: Panicum (Panicum [8]) | Post-emergence action: Stellaria (Stellaria) | Post-emergence action: Xanthium (Xanthium) |
| --- | --- | --- | --- | --- | --- | --- | --- | --- | --- | --- | --- | --- | --- | --- |
| COC(COc1nc(C(=O)C2=C(O)CCCC2=O)ccc1C(F)(F)F)OC [Compound 1.012] | 10 | 5 | 0 | 9 | 5 | 10 | 7 | 9 | 8 | 8 | 9 | 7 | 7 | 8 |
| O=C1CCCC(O)=C1C(=O)c1ccc(C(F)(F)F)c(N2CCOCC2)n1 [Compound 1.073] | 10 | 6 | 10 | 10 | 10 | 10 |  | 10 | 8 | 9 | 9 | 10 | 9 | 9 |
| CC1CN(c2nc(C(=O)C3=C(O)CCCC3=O)ccc2C(F)(F)F)CC(C)O1 (stereo not shown) [Compound 1.075] | 9 | 10 | 9 | 10 | 10 | 10 | 7 | 10 | 10 | 8 | 8 | 10 | 8 | 7 |
| O=C1CCCC(O)=C1C(=O)c1ccc(C(F)(F)F)c(N2CCSCC2)n1 [Compound 1.079] | 10 | 10 | 9 | 10 | 10 | 10 | 4 | 8 | 10 | 7 | 8 | 3 | 10 | 7 |
| COCCOCc1nc(C(=O)C2=C(O)CCCC2=O)ccc1C(F)(F)F [Compound 1.126] | 10 | 10 | 10 | 6 | 2 | 9 | 8 | 8 | 8 | 7 | 8 | 7 | 8 | 8 |
| CC1(C)C(=O)C(C(=O)c2ccc(C(F)(F)F)c(OC3CCOC3)n2)=C(O)C(C)(C)C1=O (stereo not shown) [Compound 2.021] | 9 | 7 | 9 | 3 | 0 | 9 | 7 | 9 | 8 | 9 | 9 | 9 | 7 | 8 |
| CN(C)c1nc(C(=O)C2=C(O)C(C)(C)C(=O)C(C)(C)C2=O)ccc1C(F)(F)F [Compound 2.059] | 10 | 7 | 9 | 7 | 8 | 7 |  | 7 | 10 | 8 | 6 | 5 | 8 | 7 |
| CC1(C)C(=O)C(C(=O)c2ccc(C(F)(F)F)c(N3CCOCC3)n2)=C(O)C(C)(C)C1=O [Compound 2.073] | 9 | 9 | 9 | 7 | 9 | 10 | 4 | 9 | 8 | 9 | 9 | 9 | 7 | 9 |
| CC1(C)C(=O)C(C(=O)c2ccc(C(F)(F)F)c(N3CCSCC3)n2)=C(O)C(C)(C)C1=O [Compound 2.078] | 10 | 8 | 10 | 10 | 10 | 10 | 0 | 7 | 10 | 8 | 7 | 5 | 10 | 7 |
| CC(=O)N(C)c1nc(C(=O)C2=C(O)C(C)(C)C(=O)C(C)(C)C2=O)ccc1C(F)(F)F [Compound 2.088] | 9 |  | 7 | 9 | 7 | 9 | 0 |  |  |  |  |  |  |  |
| CCC(=O)N(C)c1nc(C(=O)C2=C(O)C(C)(C)C(=O)C(C)(C)C2=O)ccc1C(F)(F)F [Compound 2.089] | 9 | 8 | 0 | 8 | 8 | 9 |  | 0 | 9 | 7 | 8 | 8 | 8 | 7 |
| CC1(C)C(=O)C(C(=O)c2ccc(C(F)(F)F)c(C3(C)OCCO3)n2)=C(O)C(C)(C)C1=O [Compound 2.191] | 10 | 7 | 9 | 7 | 10 | 10 | 3 | 3 | 7 | 8 | 8 | 9 | 10 | 8 |
| Cc1nc(C(=O)C2=C(O)C(C)(C)C(=O)C(C)(C)C2=O)ccc1C(F)(F)F [Compound 2.203] | 10 | 9 |  | 5 | 9 | 6 | 8 | 6 | 6 | 9 | 9 | 9 | 9 | 9 |
| Cc1nc(C(=O)C2=C(O)C(C)(C)C(=O)C(C)(C)C2=O)ccc1C#N [Compound 2.209] | 10 | 9 | 9 | 8 | 10 | 10 | 2 | 8 | 6 | 8 | 8 | 9 | 10 | 9 |
